Counter-ions that a name gives are not always drawn. Like-named read-outs stand apart in the source and are kept apart here.

The target in test [1] is T1, SARS-CoV-2 PLpro (nsp3 1564–1878) (Severe acute respiratory syndrome coronavirus 2, UniProt P0DTD1). In words: biochemical. The following applies: low concentration screen, read-out: % of control remaining. Set-up: FRET-quenched peptide (Pro3) cleavage by PLpro, 10 min pre-incubation, slope over 20 min, normalised to no-compound control.
The target of test [2] is T1, SARS-CoV-2 PLpro (nsp3 1564–1878). Kind of test: biochemical. Set-up: FRET-quenched peptide (Pro3) cleavage by PLpro, 10 min pre-incubation, slope over 20 min, normalised to no-compound control. The following applies: high concentration screen, read-out: % of control remaining.

Turning to `CCc1cncnc1N1CCN(Cc2nc3ccc(C(F)(F)F)cc3[nH]2)CC1` [PF-4708671], in test [1] (Well no.=4804), the remaining activity at 1.25 µM worked out at 97%. The remaining activity at 3.75 µM in test [2] (Well no.=4804) is 94.4%.
For the compound `O=c1c(O)c(-c2ccc(O)c(O)c2)oc2cc(O)cc(O)c12` [Quercetin dihydrate], in test [1] (Well no.=1315), the remaining activity at 1.25 µM was 102%. In test [2] (Well no.=1315), the remaining activity at 3.75 µM was 104%.
For the compound `COc1cccc(-c2cc(F)ccc2C2Cc3nc(N)nc(C)c3C(=O)N2)n1` (stereo not shown) [HSP990 (NVP-HSP990)], the remaining activity at 1.25 µM in test [1] (Well no.=8934) was 93.5%. Also, the remaining activity at 3.75 µM in test [2] (Well no.=8934) was found to be 100%.
In the case of `COc1nc(C)cnc1NS(=O)(=O)c1cccnc1-c1ccc(-c2nnco2)cc1` [Zibotentan], in test [1] (Well no.=6318), the remaining activity at 1.25 µM turned out to be 98.5%. Also, the remaining activity at 3.75 µM in test [2] (Well no.=6318) came out at 98.2%.
In the case of `C[C@]12CC[C@H](O)CC1=CC[C@@H]1[C@@H]2CC[C@]2(C)C(=O)CC[C@@H]12` [Dehydroepiandrosterone], the remaining activity at 1.25 µM in test [1] (Well no.=1972) turned out to be 94.1%. Moreover, the remaining activity at 3.75 µM in test [2] (Well no.=1972) turned out to be 98.4%.
With `CCCSc1nc(N[C@@H]2C[C@H]2c2ccc(F)c(F)c2)c2nnn([C@@H]3C[C@H](OCCO)[C@@H](O)[C@H]3O)c2n1` [Ticagrelor], the remaining activity at 1.25 µM in test [1] (Well no.=4738) was found to be 105%; in test [1] (Well no.=6329) it was 101%. In addition, the remaining activity at 3.75 µM in test [2] (Well no.=4738) is 108%; in test [2] (Well no.=6329) it was 102%.
With `CN(C)CC#Cc1ccc(OCCCc2sc(N3CCc4cccc(C(=O)Nc5nc6ccccc6s5)c4C3)nc2C(=O)O)c(F)c1` [A-1155463], the remaining activity at 1.25 µM in test [1] (Well no.=6344) turned out to be 96.3%. In addition, in test [2] (Well no.=6344), the remaining activity at 3.75 µM stood at 97.3%.
For the compound `COc1c(C)c2c(c(O)c1C/C=C(\C)CCC(=O)O)C(=O)OC2` [Mycophenolic Acid], the values for the remaining activity at 1.25 µM in test [1] (Well no.=1553) and in test [1] (Well no.=3415) were 100% and 96.4%, respectively. Also, the remaining activity at 3.75 µM in test [2] (Well no.=1553) turned out to be 99.9%; in test [2] (Well no.=3415), 98.7%.
As to `CCCCC#Cc1nc(N)c2ncn([C@@H]3O[C@H](C(=O)NCC)[C@@H](O)[C@H]3O)c2n1` [HE-NECA], the remaining activity at 1.25 µM in test [1] (Well no.=756) is 97%. Moreover, the remaining activity at 3.75 µM in test [2] (Well no.=756) turned out to be 98.5%.
Regarding `CNCC(=O)c1ccc(O)c(O)c1` [Adrenalone HCl], the remaining activity at 1.25 µM in test [1] (Well no.=5034) is 94.7%. In addition, the remaining activity at 3.75 µM in test [2] (Well no.=5034) was determined as 94.4%.
For `N#Cc1ccnc(N2C(=O)CC[C@H]2C(=O)N(c2cncc(F)c2)[C@H](C(=O)NC2CC(F)(F)C2)c2ccccc2Cl)c1` [Ivosidenib (AG-120)], the remaining activity at 1.25 µM in test [1] (Well no.=8630) amounted to 95.1%. Also, the remaining activity at 3.75 µM in test [2] (Well no.=8630) is 92.7%.
Regarding `O=C(CCCCCCC(=O)Nc1ccccc1)NO` [Vorinostat (SAHA)], the remaining activity at 1.25 µM in test [1] (Well no.=1866) was 87.6%. For the same compound, the remaining activity at 3.75 µM in test [2] (Well no.=1866) is 82.8%.
For `CCN1CCC[C@H]1CNC(=O)c1c(OC)ccc(Br)c1OC` [Remoxipride], the remaining activity at 1.25 µM in test [1] (Well no.=1819) was found to be 100%. The remaining activity at 3.75 µM in test [2] (Well no.=1819) is 99.4%.
In the case of `C=CC(N)CCC(=O)O` (racemic), in test [1] (Well no.=1528), the remaining activity at 1.25 µM worked out at 98.8%. Further, in test [2] (Well no.=1528), the remaining activity at 3.75 µM stood at 96.6%.
For `CC(C)NCC(O)COc1ccc(CC(N)=O)cc1` (racemic), the remaining activity at 1.25 µM in test [1] (Well no.=196) worked out at 96.7%. Further, in test [2] (Well no.=196), the remaining activity at 3.75 µM amounted to 99.1%.
With `Nc1c(Br)cc(Br)cc1CN[C@H]1CC[C@H](O)CC1` [Ambroxol HCl], in test [1] (Well no.=5311), the remaining activity at 1.25 µM was determined as 99.4%. The remaining activity at 3.75 µM in test [2] (Well no.=5311) stood at 97.1%.
In the case of `O=C1C(SCCO)=C(SCCO)C(=O)c2ccccc21` [NSC 95397], in test [1] (Well no.=5678), the remaining activity at 1.25 µM was 92%. Moreover, the remaining activity at 3.75 µM in test [2] (Well no.=5678) was 75.9%.
For the compound `O=C(O)CC1CCC2(CC1)CCN(c1cc(OC(F)(F)F)ccc1Cl)CC2` [GPR120-IN-1], the remaining activity at 1.25 µM in test [1] (Well no.=8485) was determined as 104%. Further, in test [2] (Well no.=8485), the remaining activity at 3.75 µM stood at 96.8%.
For the compound `COC(=O)c1c(-c2cc(OC)c(OC)c(OC)c2)c2ccnc(OCc3ncccn3)c2c(=O)n1Cc1ccnc(C)c1` [T-0156], the remaining activity at 1.25 µM in test [1] (Well no.=1230) was found to be 102%. For the same compound, in test [2] (Well no.=1230), the remaining activity at 3.75 µM came to 102%.
Regarding `COc1cc(=O)oc(/C=C/C=C/C=C/C(C)=C/[C@]2(C)O[C@H](C)[C@](C)(O)[C@H]2O)c1C` [Citreoviridin], in test [1] (Well no.=3391), the remaining activity at 1.25 µM stood at 92.8%. For the same compound, in test [2] (Well no.=3391), the remaining activity at 3.75 µM was 96.6%.
Regarding `NC(=O)NO` [Hydroxyurea], the remaining activity at 1.25 µM in test [1] (Well no.=566) was found to be 97.4%; in test [1] (Well no.=6544), 103%. In addition, the remaining activity at 3.75 µM in test [2] (Well no.=566) stood at 96.1%; in test [2] (Well no.=6544), 100%.
Consider `CN(C)CCOC(C)(c1ccccc1)c1ccccn1` (stereo not shown) [Doxylamine succinate], for which, in test [1] (Well no.=497), the remaining activity at 1.25 µM came out at 102%. Moreover, the remaining activity at 3.75 µM in test [2] (Well no.=497) is 104%.
With `CNCC(O)c1ccc(O)cc1` (stereo not shown) [Synephrine (hydrochloride)], the remaining activity at 1.25 µM in test [1] (Well no.=6699) is 100%. In test [2] (Well no.=6699), the remaining activity at 3.75 µM amounted to 101%.
Regarding `CC(C)c1c(C(=O)Nc2ccccc2)c(-c2ccccc2)c(-c2ccc(F)cc2)n1CC[C@@H](O)C[C@@H](O)CC(=O)O` [Atorvastatin Calcium], in test [1] (Well no.=8096), the remaining activity at 1.25 µM was 95.7%. In addition, in test [2] (Well no.=8096), the remaining activity at 3.75 µM was 98.2%.
`CCNC(=O)c1cc2c(-c3cc(OCCN4CCCC4)c(Cl)cc3Cl)nc(N)nc2s1` [NVP-BEP800]: in test [1] (Well no.=4917), the remaining activity at 1.25 µM was 93.5%. Moreover, the remaining activity at 3.75 µM in test [2] (Well no.=4917) came out at 95.1%.
Take `c1ccc2c(c1)OCC(C1=NCCN1)O2` (stereo not shown) [Idazoxan hydrochloride]: the remaining activity at 1.25 µM in test [1] (Well no.=821) worked out at 105%. Moreover, in test [2] (Well no.=821), the remaining activity at 3.75 µM amounted to 102%.
With `O=C(NO)c1cccc(C(=O)NCCc2ccccc2)c1` [BRD73954], in test [1] (Well no.=5588), the remaining activity at 1.25 µM is 99.7%. The remaining activity at 3.75 µM in test [2] (Well no.=5588) is 92.7%.
Regarding `O=C(Nc1ccccc1)c1cc([N+](=O)[O-])ccc1Cl` [GW9662], the remaining activity at 1.25 µM in test [1] (Well no.=1122) came to 88.3%. In addition, the remaining activity at 3.75 µM in test [2] (Well no.=1122) was 89.4%.
As for `CCN(CC)Cc1cc(Nc2ccnc3cc(Cl)ccc23)ccc1O` [Amodiaquine dihydrochloride dihydrate], the remaining activity at 1.25 µM in test [1] (Well no.=8396) came out at 97.5%. Also, the remaining activity at 3.75 µM in test [2] (Well no.=8396) amounted to 106%.
`Cc1cc(Nc2cc(N3CCN(C)CC3)nc(Sc3ccc(NC(=O)C4CC4)cc3)n2)n[nH]1` [Tozasertib]: in test [1] (Well no.=2895), the remaining activity at 1.25 µM came out at 101%. In test [2] (Well no.=2895), the remaining activity at 3.75 µM is 103%.
Take `CN1CCC(CNc2ccc3ncc(-c4cccc(OC(F)(F)F)c4)n3n2)CC1` [SGI-1776 free base]: in test [1] (Well no.=4818), the remaining activity at 1.25 µM was found to be 88.4%. In addition, in test [2] (Well no.=4818), the remaining activity at 3.75 µM stood at 86.2%.
On to `O=C(O)/C=C/C(O)c1ccc(Cl)cc1` (stereo not shown) [NCS-356], for which the remaining activity at 1.25 µM in test [1] (Well no.=807) was 102%. Further, the remaining activity at 3.75 µM in test [2] (Well no.=807) came out at 101%.
